Here are results for ten compounds from US11339161B2, “Triazolo pyridines as modulators of gamma-secretase” (Boehringer Ingelheim International GmbH, priority 2017, dated 2022).

Read-outs that look alike come from different tables or passages of the source.

For one assay, the target named is ABL1 (Homo sapiens, UniProt P00519). The assay can be described thus: Z'-LYTE SelectScreen biochemical kinase assay ABL1. The source says:
(§1) Thermo Fisher Scientific SelectScreen™ Biochemical Kinase Profiling Service Z′-LYTE™ Screening Protocol and Assay Conditions Assay Theory
(§2) The […] biochemical assay employs a fluorescence-based, coupled-enzyme format and is based on the differential sensitivity of phosphorylated and non-phosphorylated peptides to proteolytic cleavage. The peptide substrate is labeled with two fluorophores—one at each end—that make up a FRET pair. In the primary reaction, the kinase transfers the gamma-phosphate of ATP to a single tyrosine, serine or threonine residue in a synthetic FRET-peptide. In the secondary reaction, a site-specific protease recognizes and cleaves non-phosphorylated FRET-peptides. Phosphorylation of FRET-peptides suppresses cleavage by the Development Reagent. Cleavage disrupts FRET between the donor (i.e., coumarin) and acceptor (i.e., fluorescein) fluorophores on the FRET-peptide, whereas uncleaved, phosphorylated FRET-peptides maintain FRET. A ratiometric method, which calculates the ratio (Emission Ratio=Coumarin emission (445 nm)/Fluorescein emission (520 nm)) of donor emission to acceptor emission after excitation of the donor fluorophore at 400 nm, is used to quantitate reaction progress, as shown in the equation below. A significant benefit of this ratiometric method for quantitating reaction progress is the elimination of well-to-well variations in FRET-peptide concentration and signal intensities. As a result, the assay yields very high Z′-factor values (>0.7) at a low percent phosphorylation. Both cleaved and uncleaved FRET-peptides contribute to the fluorescence signals and therefore to the Emission Ratio. The extent of phosphorylation of the FRET-peptide can be calculated from the Emission Ratio. The Emission Ratio will remain low if the FRET-peptide is phosphorylated (i.e., no kinase inhibition) and will be high if the FRET-peptide is non-phosphorylated (i.e., kinase inhibition).
(§3) The Test Compounds are screened in 1% DMSO (final) in the well. For 10 point titrations, 3-fold serial dilutions are conducted from the starting concentration of the customer's choosing.
(§4) All Peptide/Kinase Mixtures are diluted to a 2× working concentration in the appropriate Kinase Buffer (see section Kinase Specific Assay Conditions for a complete description).
(§5) All ATP Solutions are diluted to a 4× working concentration in Kinase Buffer (50 mM HEPES pH 7.5, 0.01% BRIJ-35, 10 mM MgCl2, 1 mM EGTA). ATP Km apparent is previously determined using a Z″-LYTE assay.
(§6) The Development Reagent is diluted in Development Buffer (see section Kinase-Specific Assay Conditions—Direct and Cascade for a complete description).
(§7) Bar-coded Corning, low volume NBS, black 384-well plate (Corning Cat. #4514) • 1. 100 nL—100× Test Compound in 100% DMSO • 2. 2.4 μL—Kinase buffer • 3. 5 μL—2× Peptide/Kinase Mixture • 4. 2.5 μL—4×ATP Solution • 5. 30—second plate shake • 6. 60—minute Kinase Reaction incubation at room temperature • 7. 5 μL—Development Reagent Solution • 8. 30—second plate shake • 9. 60—minute Development Reaction incubation at room temperature • 10. Read on fluorescence plate reader and analyze the data Z′-LYTE Assay Controls
(§8) SelectScreen Kinase Profiling Service uses XLfit from IDBS. The dose response curve is curve fit to model number 205 (sigmoidal dose-response model).
The 2×ABL1/Tyr 02 mixture is prepared in 50 mM HEPES pH 7.5, 0.01% BRIJ-35, 10 mM MgCl2, 1 mM EGTA. The final 10 μL Kinase Reaction consists of 0.29-1.26 ng ABL1 and 2 μM Tyr 02 in 50 mM HEPES pH 7.5, 0.01% BRIJ-35, 10 mM MgCl2, 1 mM EGTA. After the 1 hour Kinase Reaction incubation, 5 μL of a 1:128 dilution of Development Reagent A is added.

The target in another assay is FGFR1 (Homo sapiens, UniProt P11362). The assay is described as follows: Z'-LYTE SelectScreen biochemical kinase assay FGFR1.
Sequence of FGFR1 (P11362 22-822): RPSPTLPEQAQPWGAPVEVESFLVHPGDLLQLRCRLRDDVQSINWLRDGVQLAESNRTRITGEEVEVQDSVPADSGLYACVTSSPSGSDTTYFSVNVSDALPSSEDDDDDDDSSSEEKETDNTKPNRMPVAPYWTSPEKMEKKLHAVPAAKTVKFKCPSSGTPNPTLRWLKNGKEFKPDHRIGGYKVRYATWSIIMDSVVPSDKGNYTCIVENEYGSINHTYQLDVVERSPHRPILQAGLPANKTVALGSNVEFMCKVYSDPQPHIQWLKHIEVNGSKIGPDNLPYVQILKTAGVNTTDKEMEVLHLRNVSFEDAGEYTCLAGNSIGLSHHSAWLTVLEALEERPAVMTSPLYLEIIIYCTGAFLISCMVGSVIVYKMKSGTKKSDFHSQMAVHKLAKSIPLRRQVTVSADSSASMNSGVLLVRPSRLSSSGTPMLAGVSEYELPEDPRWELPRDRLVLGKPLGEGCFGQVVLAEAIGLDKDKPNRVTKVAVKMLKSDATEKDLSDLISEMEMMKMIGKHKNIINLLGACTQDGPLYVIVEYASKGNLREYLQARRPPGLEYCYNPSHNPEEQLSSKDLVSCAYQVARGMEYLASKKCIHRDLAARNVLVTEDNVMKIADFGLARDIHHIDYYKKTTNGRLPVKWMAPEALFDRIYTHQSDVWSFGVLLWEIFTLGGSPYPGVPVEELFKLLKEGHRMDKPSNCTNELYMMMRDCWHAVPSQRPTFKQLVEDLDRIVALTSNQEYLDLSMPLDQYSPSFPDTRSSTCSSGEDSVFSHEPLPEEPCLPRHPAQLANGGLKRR
Description: as §1, §2, §3, §4, §5, §6, §7, §8
The 2×FGFR1/Tyr 04 mixture is prepared in 50 mM HEPES pH 7.5, 0.01% BRIJ-35, 10 mM MgCl2, 4 mM MnCl2, 1 mM EGTA, 2 mM DTT. The final 10 μL Kinase Reaction consists of 0.44-2.45 ng FGFR1 and 2 μM Tyr 04 in 50 mM HEPES pH 7.5, 0.01% BRIJ-35, 10 mM MgCl2, 2 mM MnCl2, 1 mM EGTA, 1 mM DTT. After the 1 hour Kinase Reaction incubation, 5 μL of a 1:64 dilution of Development Reagent B is added.

For the next assay, the target named is T1, AURKA (Aurora A) (Homo sapiens, UniProt O14965).
T1 sequence (O14965 1-403): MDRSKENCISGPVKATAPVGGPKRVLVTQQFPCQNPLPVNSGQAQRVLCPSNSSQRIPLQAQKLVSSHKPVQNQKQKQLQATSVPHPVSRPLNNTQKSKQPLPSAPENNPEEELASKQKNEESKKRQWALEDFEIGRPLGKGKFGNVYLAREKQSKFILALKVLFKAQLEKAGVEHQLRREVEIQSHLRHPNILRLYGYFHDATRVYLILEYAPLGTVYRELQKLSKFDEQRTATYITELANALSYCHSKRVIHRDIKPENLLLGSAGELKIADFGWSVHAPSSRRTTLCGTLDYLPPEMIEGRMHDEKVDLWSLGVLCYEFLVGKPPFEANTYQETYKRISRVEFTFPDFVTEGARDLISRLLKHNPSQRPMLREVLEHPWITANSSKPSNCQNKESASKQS
The assay is described as follows: Z'-LYTE SelectScreen biochemical kinase assay AURKA (Aurora A).
Description: as §1, §2, §3, §4, §5, §6, §7, §8
The 2×AURKA (Aurora A)/Ser/Thr 01 mixture is prepared in 50 mM HEPES pH 7.5, 0.01% BRIJ-35, 10 mM MgCl2, 1 mM EGTA. The final 10 μL Kinase Reaction consists of 0.91-8.56 ng AURKA (Aurora A) and 2 μM Ser/Thr 01 in 50 mM HEPES pH 7.5, 0.01% BRIJ-35, 10 mM MgCl2, 1 mM EGTA. After the 1 hour Kinase Reaction incubation, 5 μL of a 1:4096 dilution of Development Reagent A is added.

Another assay concerns kinases. The assay can be described thus: Z'-LYTE SelectScreen kinase panel: number of kinases with <40% inhibition out of 15 tested. To be noted: 10 μmolar (10000 nM) compound; [ATP] Km app; 15 kinases tested. It counts as biochemical.
Setting [1] is: 10 μmolar compound concentration, ATP at Km app, read-out: ABL1 inhibition.
Setting [2] is: read-out: % Inhibition mean ABL1.
The mark [3] stands for this setting: 10 μmolar compound concentration, ATP at Km app, read-out: FGFR1 inhibition.
The mark [4] stands for this setting: read-out: % Inhibition mean FGFR1.
Setting [5] is: 10 μmolar compound concentration, ATP at Km app, read-out: AURKA (Aurora A) inhibition.
Where [6] appears, read: read-out: % Inhibition mean AURKA (Aurora A).

Sequence of ABL1 (P00519 whole entry): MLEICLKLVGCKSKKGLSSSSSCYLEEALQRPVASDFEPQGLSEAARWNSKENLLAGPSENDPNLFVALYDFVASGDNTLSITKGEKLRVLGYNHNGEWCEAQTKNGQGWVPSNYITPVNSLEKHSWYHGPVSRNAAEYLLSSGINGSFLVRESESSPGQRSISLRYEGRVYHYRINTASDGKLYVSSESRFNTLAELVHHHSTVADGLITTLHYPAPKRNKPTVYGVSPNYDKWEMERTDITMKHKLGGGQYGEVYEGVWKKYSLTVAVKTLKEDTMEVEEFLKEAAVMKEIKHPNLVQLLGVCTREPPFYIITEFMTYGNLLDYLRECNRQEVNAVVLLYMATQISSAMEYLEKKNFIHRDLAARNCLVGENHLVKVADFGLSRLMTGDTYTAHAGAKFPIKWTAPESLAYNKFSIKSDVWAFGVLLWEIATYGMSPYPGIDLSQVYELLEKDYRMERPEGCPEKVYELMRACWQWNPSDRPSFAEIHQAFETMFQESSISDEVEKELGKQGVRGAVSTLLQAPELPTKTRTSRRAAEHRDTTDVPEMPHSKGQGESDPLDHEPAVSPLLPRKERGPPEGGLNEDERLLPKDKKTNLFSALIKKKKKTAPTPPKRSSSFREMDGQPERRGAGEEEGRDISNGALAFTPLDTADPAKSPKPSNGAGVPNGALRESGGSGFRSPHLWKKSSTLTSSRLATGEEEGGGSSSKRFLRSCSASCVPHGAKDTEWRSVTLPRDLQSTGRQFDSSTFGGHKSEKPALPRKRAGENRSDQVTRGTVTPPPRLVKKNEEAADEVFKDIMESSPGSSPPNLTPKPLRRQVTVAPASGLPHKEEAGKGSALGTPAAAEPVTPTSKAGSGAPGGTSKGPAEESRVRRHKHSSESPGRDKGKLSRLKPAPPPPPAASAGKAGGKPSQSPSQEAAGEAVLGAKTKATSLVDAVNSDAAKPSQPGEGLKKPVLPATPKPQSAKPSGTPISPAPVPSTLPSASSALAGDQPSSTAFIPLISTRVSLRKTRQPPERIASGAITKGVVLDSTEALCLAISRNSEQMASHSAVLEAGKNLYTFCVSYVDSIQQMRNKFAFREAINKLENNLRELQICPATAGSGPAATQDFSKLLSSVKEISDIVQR

For orientation: inhibition means the drop in the measured response relative to a control, in per cent. As for `CCn1ncc2c1CCC(Nc1nc3c(-c4ccc(F)cc4C)cccn3n1)C2` (stereo not shown) [Example 42, (1-Ethyl-4,5,6,7-tetrahydro-1H-indazol-5-yl)-[8-(4-fluoro-2-methyl-phenyl)-[1,2,4]triazolo[1,5-a]pyridine-2-yl]-amine], the inhibition at 10 µM was < 40% at ABL1 (setting [1]); 19% on ABL1 (setting [2]); < 40% on FGFR1 (setting [3]); 16% at FGFR1 (setting [4]); < 40% at AURKA (Aurora A) (setting [5]); -2% at AURKA (Aurora A) (setting [6]). Moreover, the “No. of kinases with <40% inhibition” value with kinases was 15/15.

For `CCn1ncc2c1CCC(Nc1nc3c(-c4ccccc4C)cccn3n1)C2` (stereo not shown) [Example 56, (1-Ethyl-4,5,6,7-tetrahydro-1H-indazol-5-yl)-[8-(2-methyl-phenyl)-[1,2,4]triazolo[1,5-a]pyridine-2-yl]-amine], the inhibition at 10 µM at ABL1 (setting [1]) is < 40%; at ABL1 (setting [2]) it was 20%; on FGFR1 (setting [3]), < 40%; on FGFR1 (setting [4]) it was 20%; at AURKA (Aurora A) (setting [5]) it was < 40%; at AURKA (Aurora A) (setting [6]), 27%. Also, in the assay on kinases, the “No. of kinases with <40% inhibition” value was 12/15.

Turning to `Cc1cc(F)ccc1-c1cccn2nc(NC3CCc4c(cnn4C(C)C)C3)nc12` (stereo not shown) [Example 44, [8-(4-fluoro-2-methyl-phenyl)-[1,2,4]triazolo[1,5-a]pyridine-2-yl]-(1-isopropyl-4,5,6,7-tetrahydro-1H-indazol-5-yl)-amine], the inhibition at 10 µM was < 40% at ABL1 (setting [1]); 13% at ABL1 (setting [2]); < 40% at FGFR1 (setting [3]); 20% at FGFR1 (setting [4]); < 40% on AURKA (Aurora A) (setting [5]); 7% on AURKA (Aurora A) (setting [6]). Also, the “No. of kinases with <40% inhibition” value in the assay with kinases is on record as 13/15.

For `CCn1nnc2c1CCC(Nc1nc3c(-c4ccc(F)cc4C)cccn3n1)C2` (stereo not shown) [Example 51, (1-Ethyl-4,5,6,7-tetrahydro-1H-benzotriazol-5-yl)-[8-(4-fluoro-2-methyl-phenyl)-[1,2,4]triazolo[1,5-a]pyridine-2-yl]-amine], the inhibition at 10 µM is < 40% on ABL1 (setting [1]); 6% on ABL1 (setting [2]); < 40% at FGFR1 (setting [3]); 5% at FGFR1 (setting [4]); < 40% on AURKA (Aurora A) (setting [5]); 8% at AURKA (Aurora A) (setting [6]). Also, the “No. of kinases with <40% inhibition” value in the assay with kinases is listed as 15/15.

`CCn1ncc2c1CCC(Nc1nc3c(-c4ccc(F)cc4)cccn3n1)C2` (stereo not shown) [Example 55, (1-Ethyl-4,5,6,7-tetrahydro-1H-indazol-5-yl)-[8-(4-fluoro-phenyl)-[1,2,4]triazolo[1,5-a]pyridine-2-yl]-amine]: the inhibition at 10 µM is < 40% on ABL1 (setting [1]); 21% on ABL1 (setting [2]); < 40% on FGFR1 (setting [3]); 12% at FGFR1 (setting [4]); < 40% on AURKA (Aurora A) (setting [5]); 15% on AURKA (Aurora A) (setting [6]). The “No. of kinases with <40% inhibition” value with kinases was 13/15.

Take `CCCCCn1ncc2c1CCC(Nc1nc3c(-c4ccc(F)cc4C)cccn3n1)C2` (stereo not shown) [Example 47, [8-(4-fluoro-2-methyl-phenyl)-[1,2,4]triazolo[1,5-a]pyridine-2-yl]-(1-pentyl-4,5,6,7-tetrahydro-1H-indazol-5-yl)-amine]: the inhibition at 10 µM at ABL1 (setting [1]) was < 40%; at ABL1 (setting [2]), 3%; at FGFR1 (setting [3]), < 40%; on FGFR1 (setting [4]), 21%; on AURKA (Aurora A) (setting [5]), < 40%; on AURKA (Aurora A) (setting [6]) it was 10%. Further, in the assay with kinases, the “No. of kinases with <40% inhibition” value is on record as 15/15.

As for `CCn1ncc2c1CCC(Nc1nc3c(-c4ccccc4)cccn3n1)C2` (stereo not shown) [Example 57, (1-Ethyl-4,5,6,7-tetrahydro-1H-indazol-5-yl)-(8-phenyl-[1,2,4]triazolo[1,5-a]pyridine-2-yl)-amine], the inhibition at 10 µM at ABL1 (setting [1]) is < 40%; on ABL1 (setting [2]), 11%; on FGFR1 (setting [3]) it was < 40%; on FGFR1 (setting [4]), 23%; at AURKA (Aurora A) (setting [5]) it was < 40%; at AURKA (Aurora A) (setting [6]) it was 7%. The “No. of kinases with <40% inhibition” value in the assay with kinases is on record as 12/15.

As for `CC1(C)C(=O)Nc2ccc(Nc3nc4c(-c5cccc(F)c5)cccn4n3)cc21` [Cpd. 263 in WO09155551, reference compound], the inhibition at 10 µM was > 80% at ABL1 (setting [1]); 99% on ABL1 (read-out: % Inhibition mean); > 80% on FGFR1 (setting [3]); 99% at FGFR1 (read-out: % Inhibition mean); > 80% at AURKA (Aurora A) (setting [5]); 99% at AURKA (Aurora A) (read-out: % Inhibition mean).

In the case of `Fc1cccc(-c2cccn3nc(Nc4ccc5[nH]cnc5c4)nc23)c1` [Cpd. 293 in WO09155551, reference compound], the inhibition at 10 µM on ABL1 (setting [1]) is > 80%; at ABL1 (read-out: % Inhibition mean), 97%; on FGFR1 (setting [3]) it was > 80%; on FGFR1 (read-out: % Inhibition mean), 93%; at AURKA (Aurora A) (setting [5]), > 80%; at AURKA (Aurora A) (read-out: % Inhibition mean) it was 89%.

For `CC1(C)NC(=O)c2ccc(Nc3nc4c(-c5cccc(F)c5)cccn4n3)cc21` [Cpd. 302 in WO09155551, reference compound], the inhibition at 10 µM at ABL1 (setting [1]) is > 80%; on ABL1 (read-out: % Inhibition mean), 104%; at FGFR1 (setting [3]) it was > 80%; on FGFR1 (read-out: % Inhibition mean), 97%; at AURKA (Aurora A) (setting [5]) it was > 80%; at AURKA (Aurora A) (read-out: % Inhibition mean) it was 98%.
